# Test results from PubChem BioAssay (NCI).
#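 Briefly, cells in 96-well plates were exposed to five compound concentrations for 48 h, and endpoints were estimated by linear interpolation. At the GI50, growth is halved. TGI marks complete inhibition of growth.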
# Experiments:
# Experiment in all cases: NCI-60 cell line screen, 48 h
# [1] = tested on: 786-0 renal
# [2] = tested on: A498 renal
# [3] = tested on: A549 NSCLC
# [4] = tested on: ACHN renal
# [5] = tested on: BT-549 breast
# [6] = tested on: CAKI-1 renal
# [7] = tested on: CCRF-CEM leukemia
# [8] = tested on: COLO 205 colon
# [9] = tested on: DU-145 prostate
# [10] = tested on: EKVX NSCLC
# [11] = tested on: HCC-2998 colon
# [12] = tested on: HCT-116 colon
# [13] = tested on: HCT-15 colon
# [14] = tested on: HL-60(TB) leukemia
# [15] = tested on: HOP-62 NSCLC
# [16] = tested on: HOP-92 NSCLC
# [17] = tested on: HS 578T breast
# [18] = tested on: HT29 colon
# [19] = tested on: IGROV1 ovarian
# [20] = tested on: K-562 leukemia
# [21] = tested on: KM12 colon
# [22] = tested on: LOX IMVI melanoma
# [23] = tested on: M14 melanoma
# [24] = tested on: MALME-3M melanoma
# [25] = tested on: MCF7 breast
# [26] = tested on: MDA-MB-231 breast
# [27] = tested on: MDA-MB-435
# [28] = tested on: MOLT-4 leukemia
# [29] = tested on: NCI-H226 lung
# [30] = tested on: NCI-H23 lung
# [31] = tested on: NCI-H460 lung
# [32] = tested on: NCI-H522 lung
# [33] = tested on: NCI/ADR-RES ovarian
# [34] = tested on: OVCAR-3 ovarian
# [35] = tested on: OVCAR-4 ovarian
# [36] = tested on: OVCAR-5 ovarian
# [37] = tested on: OVCAR-8 ovarian
# [38] = tested on: PC-3 prostate
# [39] = tested on: RPMI-8226 leukemia
# [40] = tested on: RXF 393 renal
# [41] = tested on: SF-268 CNS
# [42] = tested on: SF-295 CNS
# [43] = tested on: SF-539 CNS
# [44] = tested on: SK-MEL-2 melanoma
# [45] = tested on: SK-MEL-28 melanoma
# [46] = tested on: SK-MEL-5 melanoma
# [47] = tested on: SK-OV-3 ovarian
# [48] = tested on: SN12C renal
# [49] = tested on: SNB-19 CNS
# [50] = tested on: SNB-75 CNS
# [51] = tested on: SR leukemia
# [52] = tested on: SW-620 colon
# [53] = tested on: T-47D breast
# [54] = tested on: TK-10 renal
# [55] = tested on: U251 CNS
# [56] = tested on: UACC-257 melanoma
# [57] = tested on: UACC-62 melanoma
# [58] = tested on: UO-31 renal
compound,measurement,setting,value
COc1ccc(C(=O)Cn2c(C(=O)c3ccccc3)nc3ccccc32)cc1,GI50,[1],9.31 µM
same,TGI,[1],> 100 µM
same,GI50,[2],2900 nM
same,TGI,[2],> 100 µM
same,GI50,[3],6.05 µM
same,TGI,[3],> 100 µM
same,GI50,[4],6.23 µM
same,TGI,[4],> 100 µM
same,GI50,[5],5.9 µM
same,TGI,[5],> 100 µM
same,GI50,[6],> 100 µM
same,TGI,[6],> 100 µM
same,GI50,[7],2870 nM
same,TGI,[7],> 58.1 µM
same,GI50,[8],5.12 µM
same,TGI,[8],> 100 µM
same,GI50,[9],4.61 µM
same,TGI,[9],> 100 µM
same,GI50,[10],7.21 µM
same,TGI,[10],> 100 µM
same,GI50,[11],3.2 µM
same,TGI,[11],> 100 µM
same,GI50,[12],2250 nM
same,TGI,[12],> 100 µM
same,GI50,[13],1240 nM
same,TGI,[13],> 100 µM
same,GI50,[14],916 nM
same,TGI,[14],> 22.9 µM
same,GI50,[15],6.57 µM
same,TGI,[15],> 100 µM
same,GI50,[16],> 100 µM
same,TGI,[16],> 100 µM
same,GI50,[17],2810 nM
same,TGI,[17],> 100 µM
same,GI50,[18],1250 nM
same,TGI,[18],> 100 µM
same,GI50,[19],6.19 µM
same,TGI,[19],> 100 µM
same,GI50,[20],540 nM
same,TGI,[20],> 100 µM
same,GI50,[21],1640 nM
same,TGI,[21],> 100 µM
same,GI50,[22],5.18 µM
same,TGI,[22],> 100 µM
same,GI50,[23],2930 nM
same,TGI,[23],> 100 µM
same,TGI,[24],> 100 µM
same,GI50,[25],1350 nM
same,TGI,[25],> 100 µM
same,GI50,[26],7.38 µM
same,TGI,[26],> 100 µM
same,GI50,[27],304 nM
same,TGI,[27],1870 nM
same,GI50,[28],1870 nM
same,TGI,[28],> 100 µM
same,GI50,[29],> 90.5 µM
same,TGI,[29],> 100 µM
same,GI50,[30],5.08 µM
same,TGI,[30],> 100 µM
same,GI50,[31],3.39 µM
same,TGI,[31],> 100 µM
same,GI50,[32],2160 nM
same,TGI,[32],> 26.7 µM
same,GI50,[33],1490 nM
same,GI50,[34],2590 nM
same,TGI,[34],> 21.6 µM
same,GI50,[35],9.9 µM
same,TGI,[35],> 100 µM
same,GI50,[36],> 26.1 µM
same,TGI,[36],> 100 µM
same,GI50,[37],10.2 µM
same,TGI,[37],> 100 µM
same,GI50,[38],4.56 µM
same,TGI,[38],> 100 µM
same,GI50,[39],3.05 µM
same,TGI,[39],> 28.8 µM
same,GI50,[40],2380 nM
same,TGI,[40],> 22.2 µM
same,GI50,[41],4.18 µM
same,TGI,[41],> 100 µM
same,GI50,[42],3.19 µM
same,TGI,[42],> 100 µM
same,GI50,[43],3.03 µM
same,TGI,[43],> 100 µM
same,TGI,[44],> 100 µM
same,GI50,[45],3.91 µM
same,TGI,[45],> 100 µM
same,GI50,[46],2060 nM
same,TGI,[46],6.06 µM
same,GI50,[47],6.58 µM
same,TGI,[47],> 100 µM
same,GI50,[48],> 27.7 µM
same,TGI,[48],> 100 µM
same,GI50,[49],6.74 µM
same,TGI,[49],> 100 µM
same,GI50,[50],4.61 µM
same,TGI,[50],> 100 µM
same,GI50,[51],763 nM
same,GI50,[52],1150 nM
same,TGI,[52],> 100 µM
same,GI50,[53],3.87 µM
same,TGI,[53],> 100 µM
same,GI50,[54],11 µM
same,TGI,[54],> 100 µM
same,GI50,[55],3.62 µM
same,TGI,[55],> 100 µM
same,GI50,[56],> 100 µM
same,TGI,[56],> 100 µM
same,TGI,[57],> 100 µM
same,GI50,[58],13.3 µM
same,TGI,[58],> 100 µM
